Source: patent publication US12583861B2, “Derivatives of imidazo[4,5-d]pyridazine, their preparation and their therapeutic application” (SANOFI, priority 2021, dated 2026)

Assays:
Assay type in all cases: cell-based
human TLR8 = molecular target: T1, human TLR8 (Homo sapiens, UniProt Q9NR97); test: HEK-Blue hTLR8 reporter cell assay (SEAP, NF-kB/AP-1) for stimulation of human TLR8; conditions: HEK-Blue hTLR8 cells, 24 h incubation, SEAP readout; read-out: TLR8_EC50
T1 construct: host or cells: HEK293 (HEK-Blue hTLR8)
T1 sequence (Q9NR97 27-1041): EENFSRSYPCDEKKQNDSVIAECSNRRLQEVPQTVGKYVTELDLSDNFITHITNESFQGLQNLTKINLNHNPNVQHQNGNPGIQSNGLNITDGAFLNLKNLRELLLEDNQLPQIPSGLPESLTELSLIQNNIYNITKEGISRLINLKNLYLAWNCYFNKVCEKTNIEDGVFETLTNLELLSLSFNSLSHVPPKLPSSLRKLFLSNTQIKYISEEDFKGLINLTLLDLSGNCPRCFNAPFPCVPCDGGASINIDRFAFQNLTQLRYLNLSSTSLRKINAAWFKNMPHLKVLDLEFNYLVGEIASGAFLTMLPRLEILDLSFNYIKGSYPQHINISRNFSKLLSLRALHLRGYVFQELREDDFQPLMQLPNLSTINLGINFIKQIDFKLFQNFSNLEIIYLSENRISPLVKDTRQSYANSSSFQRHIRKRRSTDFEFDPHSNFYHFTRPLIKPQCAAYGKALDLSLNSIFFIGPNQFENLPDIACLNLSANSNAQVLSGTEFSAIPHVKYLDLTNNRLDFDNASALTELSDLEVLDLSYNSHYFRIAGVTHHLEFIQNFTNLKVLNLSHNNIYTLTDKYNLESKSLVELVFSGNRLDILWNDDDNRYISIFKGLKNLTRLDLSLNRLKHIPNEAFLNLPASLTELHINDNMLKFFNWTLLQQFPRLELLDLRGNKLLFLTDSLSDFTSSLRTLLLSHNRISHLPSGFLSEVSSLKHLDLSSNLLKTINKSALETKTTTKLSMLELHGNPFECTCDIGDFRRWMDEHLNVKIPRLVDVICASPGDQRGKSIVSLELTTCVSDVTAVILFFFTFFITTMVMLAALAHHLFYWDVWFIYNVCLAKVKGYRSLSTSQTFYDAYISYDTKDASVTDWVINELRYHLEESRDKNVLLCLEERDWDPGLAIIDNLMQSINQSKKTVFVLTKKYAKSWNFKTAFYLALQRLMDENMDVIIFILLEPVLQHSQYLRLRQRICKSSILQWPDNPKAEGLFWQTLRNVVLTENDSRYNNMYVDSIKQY
Summary of the method: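 HEK293 cells carrying hTLR8 and a SEAP reporter driven by NF-κB/AP-1 sites were seeded at 3.10E4 cells/well and held 18 to 24 h at 37° C., 5% CO2 before compound addition. Supernatant SEAP measured with QUANTI-Blue™.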

IFN-α2a = IFN-α2a cytokine activation in human PBMC (MSD assay); conditions: Homo sapiens, PBMC, 24 h
Description: (§1) The other below tests involving measuring the in vitro activity of some compounds of the disclosure on cytokines IFN-α2a, IL-6, IL29 and TNF-α were carried out using human PBMC (PBMCs).
(§2) The activity described below, with respect to TLR7, TLR8, IFN-α2a, IL-6, IL29 and TNF-α, is given by the half maximal effective concentration (EC50), which corresponds to the concentration required to obtain a 50% of the activation. The lower the EC50, the less the concentration of the compound is required to produce 50% of maximum activation and the higher the potency.
(§3) In Vitro Assay to Determine IFN-α2a, IL-6, IL29 and TNF-α Cytokine Activation:
(§4) Peripheral blood mononuclear cells were isolated by Ficoll density gradient centrifugation from peripheral blood samples obtained from healthy donors (EFS). Isolated PBMCs are washed twice with PBS and resuspended in RPMI-1640 medium supplement with 10% fetal bovine serum (FBS) at 5.10^5 cells/well in a 96-well plate. The cells were then incubated with the compounds to test at various doses (20 μM to 4.8.10-6 μM final) for 24 h at 37° C., 5% CO2. After 24 h treatment, the plates are centrifuged and the supernatant were collected and assayed for cytokines IFN-α2a, IL-6, IL29 and TNF-α using the Meso Scale Discovery (MSD) assay platform according to the manufacturer's instructions. Briefly, 25 μL of cell culture supernatants were incubated for 1 h at Room Temperature (RT) in custom Multi-Spot 96-well plates prior coated with capture antibodies. After washing, SULFO-TAG® labeled detection antibodies were added to each of the wells and incubated for 1 h RT before adding a read buffer.

IL-6 = IL-6 cytokine activation in human PBMC (MSD assay); conditions: Homo sapiens, PBMC, 24 h, read-out: IL6 EC50
Description: as §1, §2, §3, §4

IL29 = IL29 cytokine activation in human PBMC (MSD assay); conditions: Homo sapiens, PBMC, 24 h
Description: as §1, §2, §3, §4

TNF-α = TNF-α cytokine activation in human PBMC (MSD assay); conditions: Homo sapiens, PBMC, 24 h
Description: as §1, §2, §3, §4

EC50 (human TLR8) [nM] | EC50 (IFN-α2a) [nM] | EC50 (IL-6) [nM] | EC50 (IL29) [nM] | EC50 (TNF-α) [nM] | SMILES
> 20000 | 21 | 40 | 15 | 343 | CCCCc1nc2c(N)nnc(OC(C)C)c2n1Cc1ccc(CO)cc1 [Compound 35, (4-((4-amino-2-butyl-7-isopropoxy-1H-imidazo[4,5-d]pyridazin-1-yl)methyl)phenyl)methanol]
7560 | 213 | 466 | 214 | 2350 | CCCCc1nc2c(N)nnc(N3CCC(c4ccccc4)C3)c2n1C (stereo not shown) [Compound 89, 2-butyl-1-methyl-7-(3-phenylpyrrolidin-1-yl)-1H-imidazo[4,5-d]pyridazin-4-amine]
